One test relates to Escherichia coli. Put plainly: Inhibition of biofilm formation in Escherichia coli UTI89 after 72 hrs by crystal violet staining. It is filed as functional, organism-based. The conditions noted are these: UTI89, 72 h.
A further test has as its system Staphylococcus aureus. Put plainly: Antibacterial activity against methicillin-resistant Staphylococcus aureus clinical isolate 108 at 16 ug/ml after 24 hrs by broth microdilution method. It is filed as functional. For orientation: Broth dilution looks for growth in wells or tubes with falling amounts of substance.
The subject of a further test is NCI-H460. Put plainly: Cytotoxicity against human NCI-H460 cells after 72 hrs. It counts as functional, cell-based. The conditions noted are these: NCI-H460, 72 h.

Usually IC50 stands for the midpoint of a concentration-inhibition curve. Turning to `CC(=O)O[C@@H]1[C@H](O[C@@H]2O[C@H](C)[C@H](O)[C@H](O)[C@H]2O)C[C@]2(C)[C@H]3[C@H](O[C@@H]4O[C@H](C)[C@H](O)[C@H](O)[C@H]4O)C[C@@H]4[C@@H](/C(C)=C/CCC(C)(C)O)CC[C@@]4(C)[C@]3(C)CC[C@H]2C1(C)C`, in the test on Escherichia coli, the IC50 was no less than 30 µg/mL. Moreover, the Activity with Staphylococcus aureus came out at 71%. Turning to `CC(=O)O[C@@H]1[C@H](O[C@@H]2O[C@H](C)[C@@H](O)[C@H](O)[C@H]2O)C[C@]2(C)[C@H]3[C@H](O[C@@H]4O[C@H](C)[C@H](O)[C@H](O)[C@H]4O)C[C@@H]4[C@@H]([C@](C)(O)CCCC(C)(C)O)CC[C@@]4(C)[C@]3(C)CC[C@H]2C1(C)C`, in the test with Escherichia coli, the IC50 was no less than 30 µg/mL. Molecule `CC(=O)O[C@@H]1[C@H](O[C@@H]2O[C@H](C)[C@@H](O)[C@H](O)[C@H]2O)C[C@]2(C)[C@H]3[C@H](O[C@@H]4O[C@H](C)[C@H](O)[C@H](O)[C@H]4O)C[C@@H]4[C@@H](/C(C)=C/CCC(C)(C)O)CC[C@@]4(C)[C@]3(C)CC[C@H]2C1(C)C` gave an IC50 in the test with Escherichia coli of no less than 30 µg/mL. This molecule gave an Activity in the test on Staphylococcus aureus of 64%. In the test with Escherichia coli, `CC(=O)O[C@@H]1[C@H](O[C@@H]2O[C@H](C)[C@H](O)[C@H](O)[C@H]2O)C[C@]2(C)[C@H]3[C@H](O[C@@H]4O[C@H](C)[C@H](O)[C@H](O)[C@H]4O)C[C@@H]4[C@@H]([C@](C)(O)CCCC(C)(C)O)CC[C@@]4(C)[C@]3(C)CC[C@H]2C1(C)C` had an IC50 of no less than 30 µg/mL. `CC(=O)O[C@@H]1[C@H](O[C@@H]2O[C@H](C)[C@H](O)[C@H](O)[C@H]2O)C[C@]2(C)[C@H]3[C@H](O[C@@H]4O[C@H](C)[C@H](O)[C@H](O)[C@H]4O)C[C@@H]4[C@@H]([C@@](C)(O)CCC=C(C)C)CC[C@@]4(C)[C@]3(C)CC[C@H]2C1(C)C`: the IC50 was 3.9 µM in the test with NCI-H460 and no less than 30 µg/mL in the test with Escherichia coli. The molecule also returned an Activity with Staphylococcus aureus of 49%. On to `CC(=O)O[C@@H]1[C@H](O[C@@H]2O[C@H](C)[C@@H](O)[C@H](O)[C@H]2O)C[C@]2(C)[C@H]3[C@H](O[C@@H]4O[C@H](C)[C@H](O)[C@H](O)[C@H]4O)C[C@@H]4[C@@H]([C@](C)(O)CCC=C(C)C)CC[C@@]4(C)[C@]3(C)CC[C@H]2C1(C)C`, for which the IC50 in the test on Escherichia coli is no less than 30 µg/mL. In addition, in the test on Staphylococcus aureus, the Activity turned out to be 51%. In the test with Escherichia coli, `CC(=O)O[C@@H]1[C@H](O[C@@H]2O[C@H](C)[C@H](O)[C@H](O)[C@H]2O)C[C@]2(C)[C@H]3[C@H](O[C@@H]4O[C@H](C)[C@H](O)[C@H](O)[C@H]4O)C[C@@H]4[C@@H]([C@](C)(O)CCC=C(C)C)CC[C@@]4(C)[C@]3(C)CC[C@H]2C1(C)C` returned an IC50 of no less than 30 µg/mL. The Activity in the test on Staphylococcus aureus amounted to 45%.

The values above are taken from ChEMBL document CHEMBL2417364, “Acetylated dammarane-type bisdesmosides from Combretum inflatum” (J Nat Prod, 2013).
